Data published in PubChem BioAssay AID1963847 (Molecular Pharmacology Branch, DTP, NCI, 2024).

System: 415267-285-R-J2-PDC complex spheroid viability
Experiment: Anticancer human tumor 415267-285-R-J2-PDC patient-derived breast carcinoma cell line growth inhibition [POLQ]
Settings: for IC50: curve of first compound; for viability, T/C: stronger effect = lower value
Outline: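 Patient-derived tumour cells were co-cultured with HUVEC and mesenchymal stem cells as multicellular spheroids at 37 °C. They were treated with POLQ inhibitors (novobiocin, ART-558, RP6685) alone or combined with other agents. Top concentrations were at or near clinical Cmax (otherwise 10 microM; SN-38 at 1 microM), decreasing in half-log steps.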

[1] = second compound 0.0316 µM, first compound 0.0316 µM
[2] = second compound 0.0316 µM, first compound 0.1 µM
[3] = second compound 0.0316 µM, first compound 0.316 µM
[4] = second compound 0.0316 µM, first compound 1 µM
[5] = second compound 0.0316 µM, first compound 3.16 µM
[6] = second compound 0.0316 µM, first compound 10 µM
[7] = second compound 0.1 µM, first compound 0.0316 µM
[8] = second compound 0.1 µM, first compound 0.1 µM
[9] = second compound 0.1 µM, first compound 0.316 µM
[10] = second compound 0.1 µM, first compound 1 µM
[11] = second compound 0.1 µM, first compound 3.16 µM
[12] = second compound 0.1 µM, first compound 10 µM
[13] = second compound 0.316 µM, first compound 0.0316 µM
[14] = second compound 0.316 µM, first compound 0.1 µM
[15] = second compound 0.316 µM, first compound 0.316 µM
[16] = second compound 0.316 µM, first compound 1 µM
[17] = second compound 0.316 µM, first compound 3.16 µM
[18] = second compound 0.316 µM, first compound 10 µM
[19] = second compound 1 µM, first compound 0.0316 µM
[20] = second compound 1 µM, first compound 0.1 µM
[21] = second compound 1 µM, first compound 0.316 µM
[22] = second compound 1 µM, first compound 1 µM
[23] = second compound 1 µM, first compound 3.16 µM
[24] = second compound 1 µM, first compound 10 µM
[25] = second compound 3.16 µM, first compound 0.0316 µM
[26] = second compound 3.16 µM, first compound 0.1 µM
[27] = second compound 3.16 µM, first compound 0.316 µM
[28] = second compound 3.16 µM, first compound 1 µM
[29] = second compound 3.16 µM, first compound 3.16 µM
[30] = second compound 3.16 µM, first compound 10 µM
[31] = second compound 10 µM, first compound 0.0316 µM
[32] = second compound 10 µM, first compound 0.1 µM
[33] = second compound 10 µM, first compound 0.316 µM
[34] = second compound 10 µM, first compound 1 µM
[35] = second compound 10 µM, first compound 3.16 µM
[36] = second compound 10 µM, first compound 10 µM
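Note: spheroids exposed to compounds for one week before readout.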
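Throughout, for viability, T/C: luminescence used as stand-in measure of viable cells; 100% = DMSO vehicle control viability.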

## C=CC(=O)N1CCN(c2nc(=O)n(-c3c(C)ccnc3C(C)C)c3nc(-c4c(O)cccc4F)c(F)cc23)C(C)C1 (stereo unspecified) + COC1C(OC(N)=O)C(O)C(Oc2ccc3c(O)c(NC(=O)c4ccc(O)c(CC=C(C)C)c4)c(=O)oc3c2C)OC1(C)C
Second compound 0.0316 µM
  IC50: > 10 µM
Second compound 0.1 µM
  IC50: > 10 µM
Second compound 0.316 µM
  IC50: > 10 µM
Second compound 1 µM
  IC50: > 10 µM
Second compound 3.16 µM
  IC50: > 10 µM
Second compound 10 µM
  IC50: > 10 µM
[1]
  viability, T/C: 103%
[2]
  viability, T/C: 93.4%
[3]
  viability, T/C: 105%
[4]
  viability, T/C: 92.6%
[5]
  viability, T/C: 112%
[6]
  viability, T/C: 92.2%
[7]
  viability, T/C: 85.4%
[8]
  viability, T/C: 97.5%
[9]
  viability, T/C: 98.5%
[10]
  viability, T/C: 93%
[11]
  viability, T/C: 108%
[12]
  viability, T/C: 103%
[13]
  viability, T/C: 103%
[14]
  viability, T/C: 89.8%
[15]
  viability, T/C: 82.8%
[16]
  viability, T/C: 107%
[17]
  viability, T/C: 112%
[18]
  viability, T/C: 93%
[19]
  viability, T/C: 98.6%
[20]
  viability, T/C: 94.5%
[21]
  viability, T/C: 93.9%
[22]
  viability, T/C: 97%
[23]
  viability, T/C: 97.5%
[24]
  viability, T/C: 98.2%
[25]
  viability, T/C: 101%
[26]
  viability, T/C: 102%
[27]
  viability, T/C: 97.2%
[28]
  viability, T/C: 101%
[29]
  viability, T/C: 101%
[30]
  viability, T/C: 95.9%
[31]
  viability, T/C: 95.1%
[32]
  viability, T/C: 95.8%
[33]
  viability, T/C: 112%
[34]
  viability, T/C: 109%
[35]
  viability, T/C: 90.6%
[36]
  viability, T/C: 86.9%

## O=C(Nc1ccc(O)c(NS(=O)(=O)c2ccc(F)cc2)c1)c1ccc(-c2ccccc2)cc1 + Cc1cccc(N(C)C(=O)C2C(O)CCN2c2nc(C)cc(C(F)(F)F)c2C#N)c1
Second compound 0.0316 µM
  IC50: > 10 µM
Second compound 0.1 µM
  IC50: > 10 µM
Second compound 0.316 µM
  IC50: > 10 µM
Second compound 1 µM
  IC50: > 10 µM
Second compound 3.16 µM
  IC50: > 10 µM
Second compound 10 µM
  IC50: > 10 µM
[1]
  viability, T/C: 112%
[2]
  viability, T/C: 120%
[3]
  viability, T/C: 105%
[4]
  viability, T/C: 106%
[5]
  viability, T/C: 101%
[6]
  viability, T/C: 63.4%
[7]
  viability, T/C: 98.5%
[8]
  viability, T/C: 101%
[9]
  viability, T/C: 100%
[10]
  viability, T/C: 104%
[11]
  viability, T/C: 100%
[12]
  viability, T/C: 62.7%
[13]
  viability, T/C: 109%
[14]
  viability, T/C: 94.3%
[15]
  viability, T/C: 93.3%
[16]
  viability, T/C: 101%
[17]
  viability, T/C: 102%
[18]
  viability, T/C: 66.9%
[19]
  viability, T/C: 115%
[20]
  viability, T/C: 95.5%
[21]
  viability, T/C: 109%
[22]
  viability, T/C: 103%
[23]
  viability, T/C: 103%
[24]
  viability, T/C: 63.3%
[25]
  viability, T/C: 99.2%
[26]
  viability, T/C: 106%
[27]
  viability, T/C: 113%
[28]
  viability, T/C: 99.3%
[29]
  viability, T/C: 94.2%
[30]
  viability, T/C: 71.6%
[31]
  viability, T/C: 98.1%
[32]
  viability, T/C: 106%
[33]
  viability, T/C: 114%
[34]
  viability, T/C: 106%
[35]
  viability, T/C: 95.3%
[36]
  viability, T/C: 61.7%

## COc1cc2cc(C(=O)CCC(=O)O)sc2cc1OC + Cc1cccc(N(C)C(=O)C2C(O)CCN2c2nc(C)cc(C(F)(F)F)c2C#N)c1
Second compound 0.0316 µM
  IC50: > 10 µM
Second compound 0.1 µM
  IC50: > 10 µM
Second compound 0.316 µM
  IC50: > 10 µM
Second compound 1 µM
  IC50: > 10 µM
Second compound 3.16 µM
  IC50: > 10 µM
Second compound 10 µM
  IC50: > 10 µM
[1]
  viability, T/C: 101%
[2]
  viability, T/C: 103%
[3]
  viability, T/C: 101%
[4]
  viability, T/C: 104%
[5]
  viability, T/C: 116%
[6]
  viability, T/C: 99%
[7]
  viability, T/C: 103%
[8]
  viability, T/C: 98.7%
[9]
  viability, T/C: 98.7%
[10]
  viability, T/C: 102%
[11]
  viability, T/C: 100%
[12]
  viability, T/C: 101%
[13]
  viability, T/C: 99.7%
[14]
  viability, T/C: 107%
[15]
  viability, T/C: 101%
[16]
  viability, T/C: 104%
[17]
  viability, T/C: 91.5%
[18]
  viability, T/C: 109%
[19]
  viability, T/C: 111%
[20]
  viability, T/C: 101%
[21]
  viability, T/C: 95.3%
[22]
  viability, T/C: 103%
[23]
  viability, T/C: 100%
[24]
  viability, T/C: 100%
[25]
  viability, T/C: 110%
[26]
  viability, T/C: 112%
[27]
  viability, T/C: 99.1%
[28]
  viability, T/C: 102%
[29]
  viability, T/C: 97.3%
[30]
  viability, T/C: 115%
[31]
  viability, T/C: 98.8%
[32]
  viability, T/C: 112%
[33]
  viability, T/C: 109%
[34]
  viability, T/C: 105%
[35]
  viability, T/C: 103%
[36]
  viability, T/C: 109%
